# Measured values: US8143374B2, “Polypeptide derivatives of parathyroid hormone (PTH)” (The General Hospital Corporation, priority 2006, dated 2012)
# Where two headings read alike, the source gives them in different places. Where a SMILES comes first, the peptide text is derived from it. Where no end group is shown, it is not given here. [ ]: non-standard residue; d: D form. Apa = (S)-2-amino-4[(2-amino)pyrimidinyl]methylalanine; Phe(4-guanidino) = N=C(N)Nc1ccc(C[C@H](N)C(=O)O)cc1; Cha = N[C@@H](CC1CCCCC1)C(=O)O; Orn = NCCC[C@H](N)C(=O)O
# Experiments:
# [1] = Circular dichroism spectroscopy, helical residues per peptide chain; format: physicochemical; conditions: calculated from [θ]222
# Summary of the method: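 CD spectra recorded at 20 °C, four scans averaged; peptide concentration checked by A280 with the single-Trp extinction coefficient of 5700 M^−1. Helical residues per chain calculated as −[θ]222×30/28,000 from mean residue ellipticity at 222 nm.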
# wild-type human PTHR = biological target: T1, wild-type human PTHR (Homo sapiens, UniProt Q03431); test: Competition binding in intact HKRK-B7 cells with 125I-PTH(1-34) tracer; conditions: for reduction (alteration) of apparent binding affinity for the intact PTHR relative to parent peptide: versus the respective parent peptide; for IC50: intact HKRK-B7 cells, read-out: PTHR-WT (HKRK-B7 cells) IC50
# T1 construct: expressed in transfected cells
# T1 sequence (Q03431 27-593): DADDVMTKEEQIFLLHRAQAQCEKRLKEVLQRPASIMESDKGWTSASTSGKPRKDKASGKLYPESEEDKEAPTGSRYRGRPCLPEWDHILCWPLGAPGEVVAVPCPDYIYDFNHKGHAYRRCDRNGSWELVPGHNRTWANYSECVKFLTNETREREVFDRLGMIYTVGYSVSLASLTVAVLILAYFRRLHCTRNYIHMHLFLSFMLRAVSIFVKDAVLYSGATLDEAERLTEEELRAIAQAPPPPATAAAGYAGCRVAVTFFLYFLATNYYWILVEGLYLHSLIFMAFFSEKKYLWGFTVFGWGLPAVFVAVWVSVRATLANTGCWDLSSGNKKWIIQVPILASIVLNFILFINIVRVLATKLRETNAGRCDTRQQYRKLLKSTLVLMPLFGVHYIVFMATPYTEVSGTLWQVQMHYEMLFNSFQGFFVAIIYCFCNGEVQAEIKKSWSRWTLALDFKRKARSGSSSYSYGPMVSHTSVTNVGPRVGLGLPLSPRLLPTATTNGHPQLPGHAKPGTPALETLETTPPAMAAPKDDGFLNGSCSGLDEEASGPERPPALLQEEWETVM
# Protocol: Cell Culture—Cells were cultured at 37° C. in a humidified atmosphere containing 5% CO2 in Dulbecco's modified Eagle's medium (DMEM), supplemented with 10% fetal bovine serum (HyClone, Logan Utah), 100 units/ml penicillin G, and 100 ug/ml streptomycin penicillin G/streptomycin (Invitrogen Corp. Carlsbad, Calif.). For binding and cAMP studies performed with the intact PTHR, the HKRK-B7 and ROS 17/2.8 cell lines were used. HKRK-B7 cells are derived from the porcine kidney cell line LLC-PK1 and express, via stable DNA transfection, the wild-type human PTHR at an approximate surface density of 950,000 PTH-binding sites per cell. ROS 17/2.8 cells are rat osteosarcoma cells and express the endogenous PTHR at an approximate surface density of 80,000 PTH-binding sites per cell. The cells were plated and assayed in 24-well plates.
# Receptor binding—Binding to the wild-type human PTHR in intact HKRK-B7 cells and ROS 17/2.8 cells was assessed using ^125I-PTH(1-34) as a tracer radioligand, as described (Shimizu, M., (2001) Endocrinology 142:3068-3074). In brief, the cells in 24-well plates (about 500,000 cells per well) were incubated in binding buffer containing radioligand (about 100,000 cpm per well) with or without unlabeled peptide ligand (3×10^−9 to 1×10^−5 M) for four hours at 15° C. The binding mixture was then removed by aspiration, the cells were rinsed three times with binding buffer, lysed in 1 M NaOH, and the entire lysate was counted for gamma-irradiation in a gamma counter. Binding to PTHR-delNt in COS-7 cell membranes was assessed in 96-well, vacuum filtration plates (Multiscreen-Durapore HV, […] membranes, Millipore Corp., Millford, Mass.) using ^125I-[Aib^1,3,M]PTH(1-15)NH2 as a tracer radioligand, as described (Dean, T., (2006) Mol Endocrinol 20:931-942). In brief, cell membranes (20 μg/well) were incubated in membrane binding buffer containing radioligand (30,000 cpm/well) with or without unlabeled peptide ligand (3×10^−9 to 1×10^−5 M) for 90 minutes at 21° C. The plates were then subject to rapid vacuum filtration, the filters were washed once with buffer, detached from the plate and counted for gamma-irradiation in a gamma counter. Non-specific binding was defined as the binding observed in the presence of 1×10^−6 M PTH(1-31)NH2 for HKRK-B7 and ROS 17/2.8 cells, and 1×10^−6 M [Aib^1,3,M]PTH(1-15)NH2 for PTHR-delNt. Specifically bound radioactivity was calculated as a percentage of the radioactivity specifically bound in the absence of competing ligand.
# Data and statistical calculations—Data were processed for curve fitting and derivation of IC50 and EC50 values using least-squares, nonlinear regression analysis and the four parameter logistic equation: […], where y, ymin and ymax are the observed, minimum and maximum response values, respectively; x is ligand concentration, and n is the slope factor. In cases where incomplete inhibition of binding occurred: i.e. with certain PTH(1-31) analogs binding to PTHR-delNt, the curve fits and IC50 values were derived by extrapolating the data to the maximum inhibition attained by [Aib^1,3,M]PTH(1-15)NH2. Paired data sets were statistically compared using a two-tailed Student's t-test, assuming unequal variances for the two sets.
# [2] = [Ala1,Arg19]hPTH(1-31)NH2 analogs
# [3] = hPTH(1-31)NH2 analogs, 125I-[Nle8,21,Tyr34]ratPTH(1-34)NH2 tracer
# [4] = [Ala1,Arg19]hPTH(1-31)NH2 analogs, 125I-[Nle8,21,Tyr34]rPTH(1-34)NH2 tracer
Compound,"CD helical residues [1, 2]",reduction (alteration) of apparent binding affinity for the intact PTHR relative to parent peptide (wild-type human PTHR; HKRK-B7 cells),IC50 (wild-type human PTHR; [3]) [µM],also measured
"CC[C@H](C)[C@H](NC(=O)[C@H](CCC(=O)O)NC(=O)[C@H](CO)NC(=O)[C@@H](NC(=O)[C@H](C)N)C(C)C)C(=O)N[C@@H](CCC(N)=O)C(=O)N[C@@H](CC(C)C)C(=O)N[C@@H](CCSC)C(=O)N[C@@H](Cc1c[nH]cn1)C(=O)N[C@@H](CC(N)=O)C(=O)N[C@@H](CC(C)C)C(=O)NCC(=O)N[C@@H](CCCCN)C(=O)N[C@@H](Cc1c[nH]cn1)C(=O)N[C@@H](CC(C)C)C(=O)N[C@@H](CC(N)=O)C(=O)N[C@@H](CO)C(=O)N[C@@H](CCSC)C(=O)N[C@@H](CCCNC(=N)N)C(=O)N[C@@H](CC1CCCCC1)C(=O)N[C@H](C(=O)N[C@@H](CCC(=O)O)C(=O)N[C@@H](Cc1c[nH]c2ccccc12)C(=O)N[C@@H](CC(C)C)C(=O)N[C@@H](CCCNC(=N)N)C(=O)N[C@@H](CCCCN)C(=O)N[C@@H](CCCCN)C(=O)N[C@@H](CC(C)C)C(=O)N[C@@H](CCC(N)=O)C(=O)N[C@@H](CC(=O)O)C(=O)N[C@H](C(N)=O)C(C)C)C(C)C [Arg^20→Cha, AlaValSerGluIleGlnLeuMetHisAsnLeuGlyLysHisLeuAsnSerMetArgChaValGluTrpLeuArgLysLysLeuGlnAspVal] (H-AVSEIQLMHNLGKHLNSMR[Cha]VEWLRKKLQDV-NH2; N-terminus assumed)",16,120 fold,,
CC[C@H](C)[C@H](NC(=O)[C@H](CCC(=O)O)NC(=O)[C@H](CO)NC(=O)[C@@H](NC(=O)[C@@H](N)CO)C(C)C)C(=O)N[C@@H](CCC(N)=O)C(=O)N[C@@H](CC(C)C)C(=O)N[C@@H](CCSC)C(=O)N[C@@H](Cc1c[nH]cn1)C(=O)N[C@@H](CC(N)=O)C(=O)N[C@@H](CC(C)C)C(=O)NCC(=O)N[C@@H](CCCCN)C(=O)N[C@@H](Cc1c[nH]cn1)C(=O)N[C@@H](CC(C)C)C(=O)N[C@@H](CC(N)=O)C(=O)N[C@@H](CO)C(=O)N[C@@H](CCSC)C(=O)N[C@@H](CCC(=O)O)C(=O)N[C@@H](Cc1ccc(NC(=N)N)cc1)C(=O)N[C@H](C(=O)N[C@@H](CCC(=O)O)C(=O)N[C@@H](Cc1c[nH]c2ccccc12)C(=O)N[C@@H](CC(C)C)C(=O)N[C@@H](CCCNC(=N)N)C(=O)N[C@@H](CCCCN)C(=O)N[C@@H](CCCCN)C(=O)N[C@@H](CC(C)C)C(=O)N[C@@H](CCC(N)=O)C(=O)N[C@@H](CC(=O)O)C(=O)N[C@H](C(N)=O)C(C)C)C(C)C [Arg^20→Gph] (H-SVSEIQLMHNLGKHLNSME[Phe(4-guanidino)]VEWLRKKLQDV-NH2; N-terminus assumed),,,> 10,detectable binding to the intact PTHR (in words) (wild-type human PTHR; HKRK-B7 cells): complete loss of detectable binding affinity
CC[C@H](C)[C@H](NC(=O)[C@H](CCC(=O)O)NC(=O)[C@H](CO)NC(=O)[C@@H](NC(=O)[C@@H](N)CO)C(C)C)C(=O)N[C@@H](CCC(N)=O)C(=O)N[C@@H](CC(C)C)C(=O)N[C@@H](CCSC)C(=O)N[C@@H](Cc1c[nH]cn1)C(=O)N[C@@H](CC(N)=O)C(=O)N[C@@H](CC(C)C)C(=O)NCC(=O)N[C@@H](CCCCN)C(=O)N[C@@H](Cc1c[nH]cn1)C(=O)N[C@@H](CC(C)C)C(=O)N[C@@H](CC(N)=O)C(=O)N[C@@H](CO)C(=O)N[C@@H](CCSC)C(=O)N[C@@H](CCC(=O)O)C(=O)N[C@@H](CCCN)C(=O)N[C@H](C(=O)N[C@@H](CCC(=O)O)C(=O)N[C@@H](Cc1c[nH]c2ccccc12)C(=O)N[C@@H](CC(C)C)C(=O)N[C@@H](CCCNC(=N)N)C(=O)N[C@@H](CCCCN)C(=O)N[C@@H](CCCCN)C(=O)N[C@@H](CC(C)C)C(=O)N[C@@H](CCC(N)=O)C(=O)N[C@@H](CC(=O)O)C(=O)N[C@H](C(N)=O)C(C)C)C(C)C [Arg^20→Orn] (H-SVSEIQLMHNLGKHLNSME[Orn]VEWLRKKLQDV-NH2; N-terminus assumed),,,> 10,CD helical residues ([1]; hPTH(1-31)NH2 analogs): 6
CC[C@H](C)[C@H](NC(=O)[C@H](CCC(=O)O)NC(=O)[C@H](CO)NC(=O)[C@@H](NC(=O)[C@H](C)N)C(C)C)C(=O)N[C@@H](CCC(N)=O)C(=O)N[C@@H](CC(C)C)C(=O)N[C@@H](CCSC)C(=O)N[C@@H](Cc1c[nH]cn1)C(=O)N[C@@H](CC(N)=O)C(=O)N[C@@H](CC(C)C)C(=O)NCC(=O)N[C@@H](CCCCN)C(=O)N[C@@H](Cc1c[nH]cn1)C(=O)N[C@@H](CC(C)C)C(=O)N[C@@H](CC(N)=O)C(=O)N[C@@H](CO)C(=O)N[C@@H](CCSC)C(=O)N[C@@H](CCCNC(=N)N)C(=O)N[C@@H](CCCNC(=N)N)C(=O)N[C@H](C(=O)N[C@@H](CCC(=O)O)C(=O)N[C@@H](Cc1c[nH]c2ccccc12)C(=O)N[C@@H](CC(C)C)C(=O)N[C@@H](CCCNC(=N)N)C(=O)N[C@@H](CCCCN)C(=O)N[C@@H](CCCCN)C(=O)N[C@@H](CC(C)C)C(=O)N[C@@H](CCC(N)=O)C(=O)N[C@@H](CC1CCCCC1)C(=O)N[C@H](C(N)=O)C(C)C)C(C)C [Asp^30→Cha] (H-AVSEIQLMHNLGKHLNSMRRVEWLRKKLQ[Cha]V-NH2; N-terminus assumed),8,,,IC50 (wild-type human PTHR; [4]): 0.054 ± 0.007 µM
AVSEIQLMHNLGKHLNSMERVEWLRKKLQDV-NH2 [Arg^19→Glu],9,two- to five-fold reductions,,IC50 (wild-type human PTHR; [4]): 0.125 ± 0.029 µM
AVSEIQLMHNLGKHLNSMRREEWLRKKLQDV-NH2 [Val^21→Glu],7,12 fold,,
AVSEIQLMHNLGKHLNSMRRVEWERKKLQDV-NH2 [Leu^24→Glu],6,,,detectable binding to the intact PTHR (in words) (wild-type human PTHR; HKRK-B7 cells): abolished detectable binding; IC50 (wild-type human PTHR; [4]): > 10 µM
AVSEIQLMHNLGKHLNSMRRVEWLEKKLQDV-NH2 [Arg^25→Glu],5,two- to five-fold reductions,,
AVSEIQLMHNLGKHLNSMRRVEWLREKLQDV-NH2 [Lys^26→Glu],6,two- to five-fold reductions,,
AVSEIQLMHNLGKHLNSMRRVEWLRKELQDV-NH2 [Lys^27→Glu],5,two- to five-fold reductions,,
Arg^20→Apa: hPTH(1-31)NH2 analog with Arg^20 replaced by (S)-2-amino-4[(2-amino)pyrimidinyl]methylalanine (Apa) (SVSEIQLMHNLGKHLNSME[Apa]VEWLRKKLQDV-NH2),,,> 10,detectable binding to the intact PTHR (in words) (wild-type human PTHR; HKRK-B7 cells): complete loss of detectable binding affinity
"SVSEIQLMHNLGKHLNSMARVAWLRKKLQDV-NH2 [Glu^19,22→Ala,Ala]",,,0.049 ± 0.009,"CD helical residues ([1]; hPTH(1-31)NH2 analogs): 9; enhancement in apparent PTHR-binding affinity relative to parent peptide (wild-type human PTHR; HKRK-B7 cells, versus PTH(1-31)NH2): did not lead to further improvements"
